Test results: patent publication US20050124625A1, “Piperazine derivatives and their use as modulators of nuclear hormone receptor function” (priority 2003, published 2005)

Key:
[1] = tested on: castrated rats, levator ani, seminal vesicles (SV) and prostate; experiment: Levator ani & wet prostate weight assay, AR agonist assay; assay type: in vivo, rat; details: for EC50 (organ weight increase): castrated rats
Excerpt: The activity of compounds of the present invention as AR agonists is investigated in an immature male rat model, a recognized test of anabolic effects in muscle and sustaining effects in sex organs for a given compound, as described in L. G. Hershberger et al., Proc. Soc. Expt. Biol. Med., 83, 175 (1953); B. L. Beyler et al, “Methods for evaluating anabolic and catabolic agents in laboratory animals”, J. Amer. Med. Women's Ass., 23, 708 (1968); H. Fukuda et al., “Investigations of the levator ani muscle as an anabolic steroid assay”, Nago Dai. Yak. Ken. Nem. 14, 84 (1966) the disclosures of which are herein incorporated by reference.
The basis of this assay lies in the well-defined action of androgenic agents on the maintenance and growth of muscle tissues and sexual accessory organs in animals and man. Androgenic steroids, such as testosterone (T), have been well characterized for their ability to maintain muscle mass. Treatment of animals or humans after castrations with an exogenous source of T results in a reversal of muscular atrophy. The effects of T on muscular atrophy in the rat levator ani muscle have been well characterized. M. Masuoka et al., “Constant cell population in normal, testosterone deprived and testosterone stimulated levator ani muscles” Am. J. Anat. 119, 263 (1966); Z. Gori et al., “Testosterone hypertrophy of levator ani muscle of castrated rats. I. Quantitative data” Boll.-Soc. Ital. Biol. Sper. 42, 1596 (1966); Z. Gori et al., “Testosterone hypertrophy of levator ani muscle of castrated rats. II. Electron-microscopic observations” Boll.-Soc. Ital. Biol. Sper. 42, 1600 (1966); A. Boris et al., Steroids 15, 61 (1970). As described above, the effects of androgens on maintenance of male sexual accessory organs, such as the prostate and seminal vesicles, is well described. Castration results in rapid involution and atrophy of the prostate and seminal vesicles. This effect can be reversed by exogenous addition of androgens. […]

[2] = tested on: immature castrated rats, ventral prostate (VP) and seminal vesicles (SV); experiment: Wet prostate weight assay, AR antagonist assay; assay type: in vivo, rat; details: for EC50 (organ weight increase): immature castrated rats
Excerpt: Biol. Med., 83, 175 (1953); P. C.
The basis of this assay is the fact that male sexual accessory organs, such as the prostate and seminal vesicles, play an important role in reproductive function. These glands are stimulated to grow and are maintained in size and secretory function by the continued presence of serum testosterone (T), which is the major serum androgen (>95%) produced by the Leydig cells in the testis under the control of the pituitary luteinizing hormone (LH) and follicle stimulating hormone (FSH). […] Adrenal androgens also contribute about 20% of total DHT in the rat prostate, compared to 40% of that in 65-year-old men. F. Labrie et al. Clin. Invest. Med., 16, 475-492 (1993). However, this is not a major pathway, since in both animals and humans, castration leads to almost complete involution of the prostate and seminal vesicles without concomitant adrenalectomy. […] […] […] Since the male sex organs are the tissues most responsive to modulation of the androgen activity, this model is used to determine the androgen dependent growth of the sex accessory organs in immature castrated rats.
Five days after surgery these castrated rats (60-70 g, 23-25 day-old) are dosed for 3 days. […] Animals are dosed (v/w) at 0.5 ml of vehicle/100 g body weight. […] Control vehicle • 2.
At the end of the 3-day treatment, the animals are sacrificed, and the ventral prostate weighed. To compare data from different experiments, the sexual organs weights are first standardized as mg per 100 g of body weight, and the increase in organ weight induced by TP was considered as the maximum increase (100%). ANOVA followed by one-tailed Student or Fischer's exact test is used for statistical analysis.
The gain and loss of sexual organ weight reflect the changes of the cell number (DNA content) and cell mass (protein content), depending upon the serum androgen concentration. See Y. Okuda et al., J. Urol., 145, 188-191 (1991), the disclosure of which is herein incorporated by reference. Therefore, measurement of organ wet weight is sufficient to indicate the bioactivity of androgens and androgen antagonist.

[3] = target: endogenous glucocorticoid receptor (Homo sapiens, UniProt P04150); details: concentration of ≦10 μM; 10 ng/ml PMA; A549 cells
Method: Cells are plated the day before the assay at approximately 40000 cells/well. […] Activity is measured by analysis in a luminometer as compared to control experiments treated with buffer or dexamethasome.

endogenous glucocorticoid receptor, sequence (P04150 whole entry): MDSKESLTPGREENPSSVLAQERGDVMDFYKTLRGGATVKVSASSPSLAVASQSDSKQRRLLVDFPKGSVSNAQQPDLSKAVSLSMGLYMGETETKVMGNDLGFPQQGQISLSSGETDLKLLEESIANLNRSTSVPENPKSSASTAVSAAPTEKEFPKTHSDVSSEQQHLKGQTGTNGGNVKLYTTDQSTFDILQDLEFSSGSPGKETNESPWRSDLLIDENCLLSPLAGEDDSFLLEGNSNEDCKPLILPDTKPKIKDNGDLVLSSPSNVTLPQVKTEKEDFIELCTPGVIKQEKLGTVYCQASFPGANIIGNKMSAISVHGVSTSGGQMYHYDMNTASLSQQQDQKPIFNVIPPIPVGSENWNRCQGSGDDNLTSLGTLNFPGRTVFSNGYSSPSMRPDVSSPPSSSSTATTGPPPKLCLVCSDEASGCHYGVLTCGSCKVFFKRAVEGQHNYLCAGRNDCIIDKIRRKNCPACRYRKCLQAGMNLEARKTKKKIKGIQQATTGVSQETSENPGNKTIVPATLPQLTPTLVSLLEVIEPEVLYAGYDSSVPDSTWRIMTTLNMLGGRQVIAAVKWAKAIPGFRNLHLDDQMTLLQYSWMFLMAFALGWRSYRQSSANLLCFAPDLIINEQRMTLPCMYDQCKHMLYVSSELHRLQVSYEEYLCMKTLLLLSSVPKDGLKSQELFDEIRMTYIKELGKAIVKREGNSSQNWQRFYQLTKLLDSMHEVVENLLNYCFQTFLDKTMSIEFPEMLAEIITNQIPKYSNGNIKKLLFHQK

SMILES	EC50 (organ weight increase) [1]	EC50 (organ weight increase) [2]	potency higher than free T ([1]; rat, in vivo)	ED80 ([2]; immature castrated rat model) [mg]	potency higher than free T ([2]; rat, in vivo)	suppression of activity (% inhibition of the reporter system vs buffer control with PMA) [3] [%]
C[C@]12CC[C@H]3[C@@H](CCC4=CC(=O)CC[C@@]43C)[C@@H]1CC[C@@H]2O [T, testosterone]	about 1 mg	about 1 mg				
CCC(=O)O[C@H]1CC[C@H]2[C@@H]3CCC4=CC(=O)CC[C@]4(C)[C@H]3CC[C@]12C [TP, testosterone propionate]	~0.03 mg	~0.03 mg	10-30 fold	0.1	10-30 fold	
C[C@@H]1C[C@H]2[C@@H]3CCC4=CC(=O)C=C[C@]4(C)[C@@]3(F)[C@@H](O)C[C@]2(C)[C@@]1(O)C(=O)CO [dexamethasone]						65
